# From PMC11787452, “Substrate and inhibitor specificity of Plasmodium nucleoside transporters ENT1 orthologs” (The Journal of Biological Chemistry, 2024)
# “And” between values parts separate entries of the source, which are not always exact repeats. Identical values can stand only once. Like-named read-outs stand apart in the source and are kept apart here.
# Experiments:
# PbENT1 = target: T1, PbENT1 (Plasmodium berghei, UniProt A0A509AYF4); assay: ITC binding to PbENT1; conditions: for Kd: 25 °C, 25 mM MES pH 6.0, 150 mM NaCl, 0.05% DDM
# T1 construct: 10xHis (N); made in house; host or cells: Sf9 insect cells (baculovirus)
# T1 sequence (A0A509AYF4 1-412): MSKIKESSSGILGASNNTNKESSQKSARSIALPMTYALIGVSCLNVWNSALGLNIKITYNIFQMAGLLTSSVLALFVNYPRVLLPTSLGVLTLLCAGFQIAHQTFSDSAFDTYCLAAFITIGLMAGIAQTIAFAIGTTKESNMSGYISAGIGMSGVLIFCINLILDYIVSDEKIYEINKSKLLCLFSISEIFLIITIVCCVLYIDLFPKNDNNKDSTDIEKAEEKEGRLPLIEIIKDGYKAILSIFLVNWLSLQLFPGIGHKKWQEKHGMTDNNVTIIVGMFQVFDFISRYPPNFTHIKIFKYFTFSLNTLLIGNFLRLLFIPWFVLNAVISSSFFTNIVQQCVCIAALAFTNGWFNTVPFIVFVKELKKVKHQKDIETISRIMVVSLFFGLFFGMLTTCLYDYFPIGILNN
# Procedure: (§1) All the constructs were subcloned and inserted into a modified pFastBac with an N-terminal 10 × His tag. The baculovirus was generated in DH10Bac for recombinant protein expression. After 72 h of infection, Sf9 insect cells were harvested. For structural determination of the PfENT1 protein, Sf9 cells were solubilized in buffer containing 25 mM MES (pH 6.0), 150 mM NaCl, 2% (w/v) n-dodecyl-β-D-maltopyranoside (DDM), and protease inhibitor cocktail (0.8 μM aprotinin, 2 μM pepstatin, and 5 μg/ml leupeptin) at 4 °C for 2 h. After centrifugation at 18,000 rpm for 45 min at 4 °C, the detergent-soluble supernatant was collected via centrifugation at 4 °C for 60 min and incubated with Ni-NTA resin (QIAGEN) at 4 °C for 20 min. The resin was further washed with 25 mM MES pH 6.0, 150 mM NaCl, 10 mM imidazole, and 0.05% (w/v) DDM and eluted with buffer containing 25 mM MES pH 6.0, 150 mM NaCl, 300 mM imidazole, and 0.05% (w/v) DDM. The protein was further purified via size-exclusion chromatography (Superdex 200 Increase 10/300; GE Healthcare) in buffer containing 25 mM MES (pH 6.0), 150 mM NaCl, and 0.05% (w/v) DDM. The peak fractions were pooled and concentrated to 10∼50 μM for the nucleoside-binding assay. The protein purification of the bacterial nucleoside transporter NupG was performed as described in previous studies ([35]).
# (§2) […] binding to ENTs was measured at 25 °C via a MicroCal PEAQ-ITC. The purified ENT protein was concentrated to 25 to 50 μM for ITC experiments. The nucleoside was diluted to 5 mM via the same buffer employed for protein purification, which consisted of 25 mM MES (pH 6.0), 150 mM NaCl, and 0.05% DDM. The inhibitor was diluted to 250 μM via the same buffer employed for protein purification, which consisted of 25 mM MES (pH 6.0), 150 mM NaCl, and 0.05% DDM. All the titrations were repeated three times.
# PvENT1 = target: T2, PvENT1 (Plasmodium vivax, UniProt A5K8B0); assay: ITC binding to PvENT1; conditions: 25 °C, 25 mM MES pH 6.0, 150 mM NaCl, 0.05% DDM
# T2 construct: 10xHis (N); made in house; host or cells: Sf9 insect cells (baculovirus)
# T2 sequence (A5K8B0 1-416): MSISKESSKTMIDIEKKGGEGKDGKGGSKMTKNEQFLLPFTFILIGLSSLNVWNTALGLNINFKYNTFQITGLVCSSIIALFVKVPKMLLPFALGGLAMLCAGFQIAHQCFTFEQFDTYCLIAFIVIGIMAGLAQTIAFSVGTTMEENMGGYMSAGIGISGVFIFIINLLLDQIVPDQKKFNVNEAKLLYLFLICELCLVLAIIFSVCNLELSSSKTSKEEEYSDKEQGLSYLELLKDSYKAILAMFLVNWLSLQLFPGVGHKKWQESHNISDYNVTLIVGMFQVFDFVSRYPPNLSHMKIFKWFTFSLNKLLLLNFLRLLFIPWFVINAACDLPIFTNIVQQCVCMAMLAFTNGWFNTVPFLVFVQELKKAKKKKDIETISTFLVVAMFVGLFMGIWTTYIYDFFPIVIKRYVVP
# Procedure: as §1, §2
# PfENT1 [1] = target: T3, PfENT1 (Plasmodium falciparum, UniProt Q8IDM6); assay: ITC binding to PfENT1
# T3 construct: 10xHis (N); made in house; host or cells: Sf9 insect cells (baculovirus)
# T3 sequence (Q8IDM6 whole entry): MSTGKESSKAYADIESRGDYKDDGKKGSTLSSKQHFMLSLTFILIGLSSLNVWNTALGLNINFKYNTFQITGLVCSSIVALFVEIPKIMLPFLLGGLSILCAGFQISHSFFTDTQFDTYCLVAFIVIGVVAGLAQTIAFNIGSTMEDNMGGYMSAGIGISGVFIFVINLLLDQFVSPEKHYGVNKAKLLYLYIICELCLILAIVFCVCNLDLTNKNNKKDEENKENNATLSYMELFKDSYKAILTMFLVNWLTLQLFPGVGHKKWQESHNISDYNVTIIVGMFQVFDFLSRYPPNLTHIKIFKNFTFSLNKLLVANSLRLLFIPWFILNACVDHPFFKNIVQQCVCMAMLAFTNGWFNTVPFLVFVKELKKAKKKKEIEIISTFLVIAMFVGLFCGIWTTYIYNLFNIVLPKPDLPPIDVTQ
# Procedure: as §1, §2
# PfENT1 [2] = target: T3, PfENT1; set-up: method as in PMID 36977719; conditions: competition assay; cited from earlier work
# PfENT1S49C = target: T4, PfENT1S49C (Plasmodium falciparum, UniProt Q8IDM6, S49C); assay: ITC binding to PfENT1S49C
# T4 construct: 10xHis (N); made in house; host or cells: Sf9 insect cells (baculovirus)
# T4 sequence (Q8IDM6 whole entry S49C): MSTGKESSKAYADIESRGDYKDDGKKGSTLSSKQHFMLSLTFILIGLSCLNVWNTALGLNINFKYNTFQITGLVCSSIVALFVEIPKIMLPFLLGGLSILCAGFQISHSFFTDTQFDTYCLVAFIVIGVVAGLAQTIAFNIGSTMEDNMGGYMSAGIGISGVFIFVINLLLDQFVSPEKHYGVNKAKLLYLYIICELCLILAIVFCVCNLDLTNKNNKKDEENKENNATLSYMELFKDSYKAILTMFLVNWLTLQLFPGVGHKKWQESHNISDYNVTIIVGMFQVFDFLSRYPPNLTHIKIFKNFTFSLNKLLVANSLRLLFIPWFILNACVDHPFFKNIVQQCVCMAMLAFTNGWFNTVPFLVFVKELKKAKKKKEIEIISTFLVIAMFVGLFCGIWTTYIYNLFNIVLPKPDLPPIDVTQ
# Procedure: as §1, with “The protein purification of the bacterial nucleoside transporter NupG was performed as described in previous studies ([35]).” left out
# (§3) […] binding to ENTs was measured at 25 °C via a MicroCal PEAQ-ITC. […]
# PbENT1C43S = target: T5, PbENT1C43S (Plasmodium berghei, UniProt A0A509AYF4, C43S); assay: ITC binding to PbENT1C43S
# T5 construct: 10xHis (N); made in house; host or cells: Sf9 insect cells (baculovirus)
# T5 sequence (A0A509AYF4 whole entry C43S): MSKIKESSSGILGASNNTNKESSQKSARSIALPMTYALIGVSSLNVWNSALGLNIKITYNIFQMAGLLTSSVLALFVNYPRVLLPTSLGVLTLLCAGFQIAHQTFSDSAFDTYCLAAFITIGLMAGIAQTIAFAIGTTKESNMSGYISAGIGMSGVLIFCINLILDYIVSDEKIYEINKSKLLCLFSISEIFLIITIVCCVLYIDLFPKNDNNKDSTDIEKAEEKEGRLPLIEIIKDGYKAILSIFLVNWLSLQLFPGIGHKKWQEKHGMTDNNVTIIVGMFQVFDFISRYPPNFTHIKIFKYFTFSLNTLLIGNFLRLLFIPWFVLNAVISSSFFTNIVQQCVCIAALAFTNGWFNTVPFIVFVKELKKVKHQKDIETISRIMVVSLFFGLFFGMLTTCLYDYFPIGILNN
# Procedure: as §1, §2
# PfENT1M389L = target: T6, PfENT1M389L (Plasmodium falciparum, UniProt Q8IDM6, M389L); assay: ITC binding to PfENT1M389L
# T6 construct: 10xHis (N); made in house; host or cells: Sf9 insect cells (baculovirus)
# T6 sequence (Q8IDM6 whole entry M389L): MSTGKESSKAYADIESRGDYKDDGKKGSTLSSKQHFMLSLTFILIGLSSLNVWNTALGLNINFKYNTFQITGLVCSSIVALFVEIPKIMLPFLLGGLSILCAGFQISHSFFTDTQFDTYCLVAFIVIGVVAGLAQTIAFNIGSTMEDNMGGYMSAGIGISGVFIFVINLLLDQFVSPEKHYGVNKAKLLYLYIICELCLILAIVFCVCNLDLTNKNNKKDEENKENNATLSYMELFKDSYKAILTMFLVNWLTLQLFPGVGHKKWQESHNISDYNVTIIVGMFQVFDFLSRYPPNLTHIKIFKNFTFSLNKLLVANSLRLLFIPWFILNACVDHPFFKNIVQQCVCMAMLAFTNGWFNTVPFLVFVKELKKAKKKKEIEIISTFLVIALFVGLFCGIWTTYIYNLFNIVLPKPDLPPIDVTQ
# Procedure: as §1, §2
# PbENT1L388M = target: T7, PbENT1L388M (Plasmodium berghei, UniProt A0A509AYF4, L388M); assay: ITC binding to PbENT1L388M
# T7 construct: 10xHis (N); made in house; host or cells: Sf9 insect cells (baculovirus)
# T7 sequence (A0A509AYF4 whole entry L388M): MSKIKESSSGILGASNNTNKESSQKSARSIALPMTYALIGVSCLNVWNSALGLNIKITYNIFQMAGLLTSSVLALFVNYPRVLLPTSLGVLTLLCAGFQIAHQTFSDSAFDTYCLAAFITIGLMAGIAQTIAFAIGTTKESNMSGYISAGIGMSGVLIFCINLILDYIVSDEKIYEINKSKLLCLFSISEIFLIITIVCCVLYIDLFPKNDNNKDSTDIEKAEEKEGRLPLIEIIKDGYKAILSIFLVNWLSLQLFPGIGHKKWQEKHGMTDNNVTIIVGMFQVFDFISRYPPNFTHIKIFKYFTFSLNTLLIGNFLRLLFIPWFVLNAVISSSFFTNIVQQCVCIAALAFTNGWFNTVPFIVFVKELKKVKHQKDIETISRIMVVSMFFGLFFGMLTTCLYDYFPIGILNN
# Procedure: as §1, with “The protein purification of the bacterial nucleoside transporter NupG was performed as described in previous studies ([35]).” left out
# as §3
# [3] = read-out: Kd (binding affinity for PbENT1)
smiles,measurement,setting,value
O=c1ccn([C@@H]2O[C@H](CO)[C@@H](O)[C@H]2O)c(=O)[nH]1 [uridine],binding affinity for PbENT1 (in words),PbENT1,No binding affinity was detected
Nc1ccn([C@@H]2O[C@H](CO)[C@@H](O)[C@H]2O)c(=O)n1 [cytidine],binding affinity for PbENT1 (in words),PbENT1,No binding affinity was detected
O=c1[nH]c(=O)c2ncn([C@@H]3O[C@H](CO)[C@@H](O)[C@H]3O)c2[nH]1 [xanthosine],Kd,PvENT1; Kd (binding affinity for PvENT1),114000 nM and 122000 nM and 107000 nM
same,Kd,PbENT1; Kd (binding affinity for PbENT1),88200 nM and 92800 nM and 95500 nM
Cc1cn([C@H]2C[C@H](O)[C@@H](CO)O2)c(=O)[nH]c1=O [thymidine],binding affinity for PfENT1 (in words),PfENT1 [1]; PfENT1 WT,undetectable
same,binding affinity for PbENT1 (in words),PbENT1,weak
same,inhibition of the inosine transport activity of PfENT1,PfENT1 [2],effectively inhibited
Nc1ncnc2c1ncn2[C@@H]1O[C@H](CO)[C@@H](O)[C@H]1O [adenosine],Kd,PbENT1; [3],38100 nM and 36600 nM and 40500 nM
same,thermodynamic pattern of binding to PfENT1S49C,PfENT1S49C,enthalpy-driven
same,binding to PbENT1C43S (in words),PbENT1C43S,did not show detectable adenosine binding
same,inhibition of the inosine transport activity of PfENT1,PfENT1 [2],effectively inhibited
Cc1oc(-c2ccccc2)nc1C(=O)NCCN1CCCCCC1=O [GSK4],Kd,"PfENT1 [1]; Kd (binding affinity for PfENT1), 25 °C, 25 mM MES pH 6.0, 150 mM NaCl, 0.05% DDM",38.1 nM and 51.9 nM and 48.1 nM
same,Kd,PvENT1; read-out: Kd (binding affinity for PvENT1),54.3 nM and 37.2 nM and ~47.2 nM and 47.2 nM
same,Kd,PbENT1; [3],15400 nM and 4920 nM and 12600 nM
same,binding affinity of PfENT1M389L relative to PfENT1WT,PfENT1M389L,five times weaker
same,Kd,"PfENT1M389L; Kd (binding to PfENT1M389L), 25 °C, pH 6.0",234 nM and 317 nM and 276 nM
same,binding affinity of PbENT1L388M relative to PbENT1WT,PbENT1L388M,five times greater
same,Kd,"PbENT1L388M; Kd (binding to PbENT1L388M), 25 °C, pH 6.0",2590 nM and 2090 nM and 2770 nM
